{
  "source": "patent US20210315840A1",
  "about": "“SOLID ORAL DOSAGE FORMS OF KETAMINE DERIVATIVES” (priority 2017, published 2021)",
  "key": {"[1]": {"system": "α-amino-3-hydroxy-5-methyl-4-isoxazolepropionic acid receptor (AMPAR)-mediated currents", "assay": "In vitro electrophysiology, field excitatory postsynaptic potentials", "details": "estimated", "method": "The free (unbound) concentration of 2R,6R-hydroxynorketamine producing pharmacodynamics activity in the brain is estimated to be approximately 10 μM."}, "UGT1A1": {"biological_target": "UGT1A1 (Homo sapiens, UniProt P22309)", "sequence (P22309 26-533)": "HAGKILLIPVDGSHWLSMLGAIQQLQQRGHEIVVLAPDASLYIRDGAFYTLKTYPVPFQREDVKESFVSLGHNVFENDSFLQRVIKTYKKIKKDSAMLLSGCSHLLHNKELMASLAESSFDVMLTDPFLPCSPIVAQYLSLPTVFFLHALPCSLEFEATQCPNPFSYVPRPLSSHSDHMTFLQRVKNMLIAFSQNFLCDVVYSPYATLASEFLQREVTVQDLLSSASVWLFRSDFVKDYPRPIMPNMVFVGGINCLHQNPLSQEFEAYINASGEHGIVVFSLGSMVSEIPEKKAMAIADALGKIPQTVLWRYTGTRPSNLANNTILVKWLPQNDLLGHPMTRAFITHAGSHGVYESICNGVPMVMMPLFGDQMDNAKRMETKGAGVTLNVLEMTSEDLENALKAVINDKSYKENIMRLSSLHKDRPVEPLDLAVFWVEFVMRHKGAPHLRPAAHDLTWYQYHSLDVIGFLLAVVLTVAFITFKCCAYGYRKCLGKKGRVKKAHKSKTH", "assay": "UGT inhibition assay UGT1A1", "type": "in vitro ADME", "excerpt": "2R,6R-hydroxynorketamine was therefore investigated for its potential to inhibit this isozyme, along with that of the major UGT isozyme, UGT1A1, using a UGT inhibition assay."}, "5-HT1, Non-Selective": {"system": "5-HT1, Non-Selective", "assay": "Binding assay 5-HT1, Non-Selective", "excerpt": "(§1) 2R,6R-hydroxynorketamine was investigated for binding to monoamine oxidases A and B, monoamine transporters, as well as a variety of 5HT receptors.\nAn absence of interaction between 2R,6R-hydroxynorketamine and 5HT1 receptors is also of note. Rare postmarketing reports have described patients with weakness, hyperreflexia, and incoordination following the use of an SSRI and the 5HT1 agonist, sumatriptan. The possibility of such interactions should also be considered if other 5HT1 agonists are to be used in combination with SSRIs."}, "CYP3A4": {"biological_target": "CYP3A4 (Homo sapiens, UniProt P08684)", "sequence (P08684 whole entry)": "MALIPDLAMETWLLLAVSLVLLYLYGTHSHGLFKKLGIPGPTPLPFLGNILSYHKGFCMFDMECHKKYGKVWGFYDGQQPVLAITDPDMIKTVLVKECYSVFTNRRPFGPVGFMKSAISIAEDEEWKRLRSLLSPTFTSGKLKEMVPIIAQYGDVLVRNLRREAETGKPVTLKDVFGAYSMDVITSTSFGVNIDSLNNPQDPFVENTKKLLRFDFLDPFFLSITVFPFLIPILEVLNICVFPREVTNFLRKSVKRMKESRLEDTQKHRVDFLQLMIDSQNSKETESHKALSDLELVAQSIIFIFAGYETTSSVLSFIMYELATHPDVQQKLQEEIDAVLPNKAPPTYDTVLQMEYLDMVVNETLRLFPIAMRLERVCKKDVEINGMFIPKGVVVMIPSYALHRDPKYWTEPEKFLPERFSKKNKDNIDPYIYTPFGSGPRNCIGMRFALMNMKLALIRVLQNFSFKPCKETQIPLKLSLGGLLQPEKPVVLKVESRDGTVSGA", "assay": "CYP inhibition assay CYP3A4, substrate testosterone", "type": "in vitro ADME", "details": "for % Inhibition: Substrate = testosterone", "excerpt": "(§2) Cytochrome P450s (CYPs) are a family of enzymes that play a primary role in the metabolism of a wide variety of drugs. 2R,6R-hydroxynorketamine was investigated for its potential to inhibit the action of 7 key CYP enzymes using an inhibition assay measuring reduction in the formation of metabolites compared to control."}, "[2]": {"assay": "pKa by potentiometric (pH-metric) titration", "type": "physicochemical", "details": "methanol-water co-solvent, Yasuda-Shedlovsky extrapolation", "method": "The sample pKa was determined using the potentiometric (pH-metric) technique following attempts to determine pKa via UV spectroscopic techniques.\nUV-metric: The sample was initially titrated in a fast-UV triple titration between pH 2.0-12.0 at concentrations of 31-19 μM, under aqueous conditions. No evidence of any sample ionisation within the investigated pH range was inferred from the spectroscopic data obtained, meaning that any ionisable groups were remote from chromophores. Therefore, the sample was analysed using the pH-metric method.\npH-metric: The sample was subsequently titrated using the potentiometric technique to determine the non-UV active pKas. A triple titration was carried out under methanol-water co-solvent conditions from pH 2.0-12.0 at concentrations of 0.9-0.6 mM (the methanol mixing ratio varied from 53.0 to 33.3% w/w)."}, "CYP2C19": {"biological_target": "CYP2C19 (Homo sapiens, UniProt P33261)", "sequence (P33261 whole entry)": "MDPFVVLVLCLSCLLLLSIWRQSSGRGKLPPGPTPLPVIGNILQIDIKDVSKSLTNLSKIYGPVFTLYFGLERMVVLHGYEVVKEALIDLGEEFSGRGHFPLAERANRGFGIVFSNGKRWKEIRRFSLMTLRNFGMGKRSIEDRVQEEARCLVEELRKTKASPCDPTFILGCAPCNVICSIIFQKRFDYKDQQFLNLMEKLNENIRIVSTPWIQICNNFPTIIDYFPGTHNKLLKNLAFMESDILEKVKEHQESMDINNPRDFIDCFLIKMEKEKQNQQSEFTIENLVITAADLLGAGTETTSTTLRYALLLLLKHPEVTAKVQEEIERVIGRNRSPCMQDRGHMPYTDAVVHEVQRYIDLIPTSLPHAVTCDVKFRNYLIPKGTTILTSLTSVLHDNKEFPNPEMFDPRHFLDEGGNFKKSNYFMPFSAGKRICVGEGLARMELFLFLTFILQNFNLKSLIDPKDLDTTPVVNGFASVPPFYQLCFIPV", "assay": "CYP inhibition assay CYP2C19", "type": "in vitro ADME", "excerpt": "as §2"}, "CYP2C8": {"biological_target": "T1, CYP2C8 (Homo sapiens, UniProt P10632)", "T1 sequence (P10632 1-490)": "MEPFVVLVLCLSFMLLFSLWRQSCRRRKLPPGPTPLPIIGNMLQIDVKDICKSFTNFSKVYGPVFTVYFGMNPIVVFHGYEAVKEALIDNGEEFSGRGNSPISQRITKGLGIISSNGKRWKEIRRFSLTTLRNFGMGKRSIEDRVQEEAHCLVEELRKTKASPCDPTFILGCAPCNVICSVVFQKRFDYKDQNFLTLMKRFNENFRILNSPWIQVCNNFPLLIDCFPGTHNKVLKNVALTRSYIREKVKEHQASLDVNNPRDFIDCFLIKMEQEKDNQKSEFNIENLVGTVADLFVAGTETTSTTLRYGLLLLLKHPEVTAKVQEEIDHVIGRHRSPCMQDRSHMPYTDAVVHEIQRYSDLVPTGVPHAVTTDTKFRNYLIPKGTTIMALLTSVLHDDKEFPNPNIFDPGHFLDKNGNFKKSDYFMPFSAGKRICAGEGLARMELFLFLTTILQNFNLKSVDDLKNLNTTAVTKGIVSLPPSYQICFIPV", "assay": "CYP inhibition assay CYP2C8", "type": "in vitro ADME", "excerpt": "as §2"}, "5-HT1A": {"biological_target": "T2, 5-HT1A (Homo sapiens, UniProt P08908)", "T2 sequence (P08908 1-422)": "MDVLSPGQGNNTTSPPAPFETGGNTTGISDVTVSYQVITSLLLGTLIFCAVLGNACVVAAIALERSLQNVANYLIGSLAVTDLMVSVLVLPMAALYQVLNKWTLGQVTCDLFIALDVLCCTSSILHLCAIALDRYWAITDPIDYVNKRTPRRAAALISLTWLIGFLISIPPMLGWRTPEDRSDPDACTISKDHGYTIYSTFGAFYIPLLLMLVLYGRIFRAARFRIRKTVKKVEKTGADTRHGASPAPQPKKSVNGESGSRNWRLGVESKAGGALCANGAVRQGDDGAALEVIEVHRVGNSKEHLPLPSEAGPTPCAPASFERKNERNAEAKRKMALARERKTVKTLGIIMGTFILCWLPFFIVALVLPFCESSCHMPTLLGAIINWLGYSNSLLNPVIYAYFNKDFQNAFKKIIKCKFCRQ", "assay": "Binding assay 5-HT1A", "excerpt": "as §1"}, "5-HT2C": {"biological_target": "T3, 5-HT2C (Homo sapiens, UniProt P28335)", "T3 sequence (P28335 33-458)": "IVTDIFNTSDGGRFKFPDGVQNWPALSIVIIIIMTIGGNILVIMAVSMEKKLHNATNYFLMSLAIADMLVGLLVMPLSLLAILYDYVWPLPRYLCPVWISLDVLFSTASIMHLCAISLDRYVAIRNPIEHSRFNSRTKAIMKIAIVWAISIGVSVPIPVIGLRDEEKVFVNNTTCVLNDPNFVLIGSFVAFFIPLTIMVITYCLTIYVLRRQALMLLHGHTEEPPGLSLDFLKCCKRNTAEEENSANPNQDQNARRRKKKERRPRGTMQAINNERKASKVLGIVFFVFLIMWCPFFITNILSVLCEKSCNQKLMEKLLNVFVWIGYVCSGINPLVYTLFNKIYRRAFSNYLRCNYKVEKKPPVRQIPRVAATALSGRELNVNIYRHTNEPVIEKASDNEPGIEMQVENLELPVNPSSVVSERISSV", "assay": "Binding assay 5-HT2C", "excerpt": "as §1"}},
  "data": [
    {"compound": "N[C@@]1(c2ccccc2Cl)CCC[C@@H](O)C1=O", "note": "[2R,6R-hydroxynorketamine, 2R,6R-2-(2-Chlorophenyl)-2-(amino)-6-hydroxycyclohexanone]", "values": [
      {"measurement": "free (unbound) concentration producing pharmacodynamics activity in the brain, sufficient to increase fEPSPs", "setting": "[1]", "value": "approximately 10 μM"},
      {"measurement": "inhibition of UGT1A1 (in words)", "setting": "UGT1A1", "value": "does not inhibit"},
      {"measurement": "% Inhibition of Control Specific Binding", "setting": "5-HT1, Non-Selective", "value": "−9", "unit": "%"},
      {"measurement": "% of Control Specific Binding", "setting": "5-HT1, Non-Selective", "value": 105.4, "unit": "%"},
      {"measurement": "binding to 5HT1 receptors (in words)", "setting": "5-HT1, Non-Selective", "value": "does not bind"},
      {"measurement": "% Inhibition", "setting": "CYP3A4; 0.4 μM", "value": 1.62, "unit": "%"},
      {"measurement": "% Inhibition", "setting": "CYP3A4; 1 μM", "value": "−0.509", "unit": "%"},
      {"measurement": "% Inhibition", "setting": "CYP3A4; 4 μM", "value": 7.04, "unit": "%"},
      {"measurement": "% Inhibition", "setting": "CYP3A4; 10 μM", "value": 12.4, "unit": "%"},
      {"measurement": "% Inhibition", "setting": "CYP3A4; 40 μM", "value": 35.2, "unit": "%"},
      {"measurement": "% Inhibition", "setting": "CYP3A4; 100 μM", "value": 53.4, "unit": "%"},
      {"measurement": "IC50", "setting": "CYP3A4; substrate testosterone", "value": 81, "unit": "µM"},
      {"measurement": "pKa", "setting": "[2]", "value": "6.51+/−0.02"},
      {"measurement": "inhibition of CYP2C19 (in words)", "setting": "CYP2C19", "value": "did not inhibit"},
      {"measurement": "% Inhibition", "setting": "CYP2C19; 0.4 μM", "value": "−2.01", "unit": "%"},
      {"measurement": "% Inhibition", "setting": "CYP2C19; 1 μM", "value": "−1.66", "unit": "%"},
      {"measurement": "% Inhibition", "setting": "CYP2C19; 4 μM", "value": 1.85, "unit": "%"},
      {"measurement": "% Inhibition", "setting": "CYP2C19; 10 μM", "value": 6.69, "unit": "%"},
      {"measurement": "% Inhibition", "setting": "CYP2C19; 40 μM", "value": 8.25, "unit": "%"},
      {"measurement": "% Inhibition", "setting": "CYP2C19; 100 μM", "value": 16.1, "unit": "%"},
      {"measurement": "inhibition of CYP2C8 (in words)", "setting": "CYP2C8", "value": "did not inhibit"},
      {"measurement": "% Inhibition", "setting": "CYP2C8; 0.4 μM", "value": 5.63, "unit": "%"},
      {"measurement": "% Inhibition", "setting": "CYP2C8; 1 μM", "value": 4.91, "unit": "%"},
      {"measurement": "% Inhibition", "setting": "CYP2C8; 4 μM", "value": 12.5, "unit": "%"},
      {"measurement": "% Inhibition", "setting": "CYP2C8; 10 μM", "value": 8.33, "unit": "%"},
      {"measurement": "% Inhibition", "setting": "CYP2C8; 40 μM", "value": 8.35, "unit": "%"},
      {"measurement": "% Inhibition", "setting": "CYP2C8; 100 μM", "value": 2.08, "unit": "%"},
      {"measurement": "% Inhibition of Control Specific Binding", "setting": "5-HT1A", "value": 5, "unit": "%"},
      {"measurement": "% of Control Specific Binding", "setting": "5-HT1A", "value": 97.9, "unit": "%"},
      {"measurement": "binding to 5HT1A receptor subtype (in words)", "setting": "5-HT1A", "value": "does not bind"},
      {"measurement": "% Inhibition of Control Specific Binding", "setting": "5-HT2C", "value": 10, "unit": "%"},
      {"measurement": "% of Control Specific Binding", "setting": "5-HT2C", "value": 91.1, "unit": "%"},
      {"measurement": "binding to 5HT2C receptor subtype (in words)", "setting": "5-HT2C", "value": "does not bind"}
    ]}
  ]
}
